Data published in patent publication US20220133782A1, “METHODS AND COMPOSITIONS FOR USING CINNAMALDEHYDE AND ZINC FOR WEIGHT MANAGEMENT” (SOCIÉTÉ DES PRODUITS NESTLÉ S.A., priority 2014, published 2022).

Assays:
[1] = Nose temperature after ingestion in human subjects; assay type: in vivo; conditions: fifteen minutes following ingestion, FIG. 7
Description: The nose temperature of the subjects was analyzed over the fifteen minutes following ingestion of the various compounds.

[2] = Comparative taste testing in human subjects; assay type: in vivo; conditions: 4.8 ppm capsaicin or 350 ppm cinnamaldehyde, FIG. 9
Description: Human subjects were administered a composition comprising 4.8 ppm capsaicin or 350 ppm cinnamaldehyde. […] 87.9% of the participants judged capsaicin intense to very intense, compared to only 20.5% for cinnamaldehyde. To achieve a similar effect on fat oxidation of capsaicin and cinnamaldehyde, the dose of capsaicin is about 1.5 times less than the maximum that can be used as a flavor (7 ppm according to Fenaroli's Handbook; Burdock, 2010), and the dose of cinnamaldehyde is about 17.5 times less than the maximum that can be used as a flavor (6191.0 ppm according to Fenaroli's Handbook; Burdock, 2010).

[3] = Chin temperature after ingestion in human subjects (sympathetic autonomic activity); assay type: in vivo; conditions: for AUC difference in chin temperature relative to placebo: Z10, comparison vs Pl (placebo)
Description: The chin temperature of the subjects was measured over the eighty minutes following ingestion of the various compounds. […] The increased sympathetic activity identified by measuring the facial temperature (increased blood flow on the chin) might explain the increased energy expenditure measured by indirect calorimetry.

[4] = biological target: TRPM8 (Homo sapiens, UniProt Q7Z2W7); conditions: background statement; cited from earlier work
Chain of TRPM8 (Q7Z2W7 whole entry, species assumed): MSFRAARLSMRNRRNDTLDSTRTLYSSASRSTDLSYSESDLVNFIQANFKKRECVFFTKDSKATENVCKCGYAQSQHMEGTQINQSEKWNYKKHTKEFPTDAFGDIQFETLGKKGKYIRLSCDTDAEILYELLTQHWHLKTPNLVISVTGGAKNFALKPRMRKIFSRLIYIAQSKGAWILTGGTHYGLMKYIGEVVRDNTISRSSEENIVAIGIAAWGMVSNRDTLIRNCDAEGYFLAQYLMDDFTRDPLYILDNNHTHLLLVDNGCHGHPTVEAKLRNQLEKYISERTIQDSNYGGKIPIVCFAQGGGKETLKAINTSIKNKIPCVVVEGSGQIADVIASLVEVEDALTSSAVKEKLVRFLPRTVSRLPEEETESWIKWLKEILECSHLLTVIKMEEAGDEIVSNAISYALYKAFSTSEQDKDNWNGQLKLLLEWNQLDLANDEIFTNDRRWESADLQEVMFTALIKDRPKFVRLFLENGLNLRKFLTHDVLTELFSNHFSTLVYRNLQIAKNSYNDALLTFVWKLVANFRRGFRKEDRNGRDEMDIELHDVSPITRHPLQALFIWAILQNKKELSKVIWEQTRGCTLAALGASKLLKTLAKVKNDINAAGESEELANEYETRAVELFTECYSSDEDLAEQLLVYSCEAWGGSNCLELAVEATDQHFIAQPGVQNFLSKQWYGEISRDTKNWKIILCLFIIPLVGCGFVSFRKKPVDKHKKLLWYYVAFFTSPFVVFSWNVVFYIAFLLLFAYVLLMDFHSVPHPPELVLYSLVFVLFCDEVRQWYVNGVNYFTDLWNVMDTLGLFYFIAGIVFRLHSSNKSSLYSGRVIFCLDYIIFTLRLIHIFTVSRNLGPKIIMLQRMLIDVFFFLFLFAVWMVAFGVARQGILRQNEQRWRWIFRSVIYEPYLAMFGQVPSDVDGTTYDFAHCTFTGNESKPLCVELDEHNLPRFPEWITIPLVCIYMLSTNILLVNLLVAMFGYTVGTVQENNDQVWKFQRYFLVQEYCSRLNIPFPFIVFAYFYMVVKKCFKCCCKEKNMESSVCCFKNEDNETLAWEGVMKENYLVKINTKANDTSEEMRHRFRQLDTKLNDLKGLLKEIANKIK

[5] = biological target: TRPA1 (Homo sapiens, UniProt O75762); conditions: background statement; read-out: EC50 for activation of TRPA1; cited from earlier work
Chain of TRPA1 (O75762 whole entry, species assumed): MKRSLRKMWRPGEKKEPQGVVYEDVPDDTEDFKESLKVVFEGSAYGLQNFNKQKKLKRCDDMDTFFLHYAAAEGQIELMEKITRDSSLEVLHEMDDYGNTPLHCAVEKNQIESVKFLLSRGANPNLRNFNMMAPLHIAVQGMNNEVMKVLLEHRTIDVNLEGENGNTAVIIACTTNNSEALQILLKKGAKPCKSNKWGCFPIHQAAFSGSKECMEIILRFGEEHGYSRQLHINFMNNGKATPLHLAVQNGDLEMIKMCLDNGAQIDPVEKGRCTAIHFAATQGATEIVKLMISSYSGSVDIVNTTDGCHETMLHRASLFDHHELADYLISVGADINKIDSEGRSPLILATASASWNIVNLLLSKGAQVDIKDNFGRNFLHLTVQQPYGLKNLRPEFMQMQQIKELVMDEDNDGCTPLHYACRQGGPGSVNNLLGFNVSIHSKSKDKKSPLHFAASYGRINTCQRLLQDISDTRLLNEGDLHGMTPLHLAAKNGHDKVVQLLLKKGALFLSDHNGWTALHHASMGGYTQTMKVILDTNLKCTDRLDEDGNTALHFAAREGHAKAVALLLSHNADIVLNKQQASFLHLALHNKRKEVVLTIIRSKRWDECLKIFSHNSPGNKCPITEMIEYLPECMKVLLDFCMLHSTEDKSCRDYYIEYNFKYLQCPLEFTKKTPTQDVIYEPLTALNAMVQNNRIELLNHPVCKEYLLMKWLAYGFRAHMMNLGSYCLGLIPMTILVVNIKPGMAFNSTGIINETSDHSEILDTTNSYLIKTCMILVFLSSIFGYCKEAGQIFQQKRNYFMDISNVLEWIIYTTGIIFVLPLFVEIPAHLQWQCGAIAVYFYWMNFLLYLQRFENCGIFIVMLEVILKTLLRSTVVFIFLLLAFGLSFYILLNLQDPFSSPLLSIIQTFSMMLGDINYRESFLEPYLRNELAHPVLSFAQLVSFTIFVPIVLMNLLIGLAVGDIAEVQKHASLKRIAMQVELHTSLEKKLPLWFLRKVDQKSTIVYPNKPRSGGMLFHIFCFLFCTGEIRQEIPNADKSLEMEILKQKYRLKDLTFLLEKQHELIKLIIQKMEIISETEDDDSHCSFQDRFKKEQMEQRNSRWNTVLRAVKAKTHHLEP

[6] = biological target: TRPV1 (Homo sapiens, UniProt Q8NER1); conditions: background statement; cited from earlier work
Chain of TRPV1 (Q8NER1 whole entry, species assumed): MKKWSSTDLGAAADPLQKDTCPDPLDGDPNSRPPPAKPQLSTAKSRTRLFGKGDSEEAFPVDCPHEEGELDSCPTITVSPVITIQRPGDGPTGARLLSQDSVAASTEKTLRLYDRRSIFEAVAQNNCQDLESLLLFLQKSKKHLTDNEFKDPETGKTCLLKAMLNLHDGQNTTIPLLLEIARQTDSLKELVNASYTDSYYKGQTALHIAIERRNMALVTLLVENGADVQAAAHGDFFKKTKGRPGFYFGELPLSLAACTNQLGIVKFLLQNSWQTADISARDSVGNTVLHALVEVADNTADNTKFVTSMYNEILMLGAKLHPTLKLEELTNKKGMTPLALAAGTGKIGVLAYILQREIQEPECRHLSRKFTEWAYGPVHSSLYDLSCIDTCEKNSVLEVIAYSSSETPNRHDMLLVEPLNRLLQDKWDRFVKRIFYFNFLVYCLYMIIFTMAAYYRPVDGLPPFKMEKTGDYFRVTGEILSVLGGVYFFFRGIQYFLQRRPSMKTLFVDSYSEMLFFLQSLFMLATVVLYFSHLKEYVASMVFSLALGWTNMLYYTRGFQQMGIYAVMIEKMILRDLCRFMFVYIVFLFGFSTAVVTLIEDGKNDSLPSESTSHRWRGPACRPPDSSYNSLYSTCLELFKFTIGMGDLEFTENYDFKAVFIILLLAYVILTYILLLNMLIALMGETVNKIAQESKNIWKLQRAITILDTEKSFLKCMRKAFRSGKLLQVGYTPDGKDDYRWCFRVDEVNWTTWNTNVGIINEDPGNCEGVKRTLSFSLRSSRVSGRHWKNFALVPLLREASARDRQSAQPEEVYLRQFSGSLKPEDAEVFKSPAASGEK

[7] = biological target: T1, hTRPA1 expressed in CHO cells (Homo sapiens, UniProt O75762); test: In vitro activity of hTRPA1 expressed in CHO cells (intracellular calcium, fluorescent dye); assay type: cell-based; set-up: in vitro activity of hTRPA1, positive control efficacy: dose or concentration left out as unconfirmed
T1 construct: expressed in transfected cells; host or cells: CHO cells
T1 sequence (O75762 whole entry): as the sequence (O75762 whole entry, species assumed) above

[8] = Energy expenditure after ingestion in human subjects; assay type: in vivo
Description: Human subjects were administered placebo, a cooling flavor, capsaicin, or cinnamaldehyde. The energy expenditure was measured over the eighty minutes following ingestion.

[9] = Postprandial fat oxidation after ingestion in human subjects; assay type: in vivo
Description: The postprandial fat oxidation was measured over the 90 minutes following ingestion of the various compounds.

[10] = flavoring level of cinnamaldehyde judged significantly less intense than capsaicin

| SMILES | nose temperature [1] | participants who judged the taste intense to very intense [2] | AUC difference in chin temperature relative to placebo ([3]; human subjects) | activation of TRPM8 [4] | EC50 [5] | activation of TRPV1 [6] | impact on sympathetic nervous system activity compared to capsaicin [3, 10] | chin temperature relative to baseline ([3]; human subjects, over the eighty minutes following ingestion, FIG. 8) | in vitro activity of hTRPA1, positive control efficacy ([7]; according to a dose-response curve) | impact on energy expenditure compared to capsaicin [8, 10] | energy expenditure compared to placebo ([8]; human subjects, over the eighty minutes following ingestion, FIGS. 3 and 4) | effect on fat oxidation compared to capsaicin [9, 10] | postprandial fat oxidation compared to placebo ([9]; human subjects, over the 90 minutes following ingestion, FIGS. 5 and 6) | zinc concentration required for synergy with cinnamaldehyde on TRPA1 ([7]; in vitro) |
| --- | --- | --- | --- | --- | --- | --- | --- | --- | --- | --- | --- | --- | --- | --- |
| COc1cc(CNC(=O)CCCC/C=C/C(C)C)ccc1O [capsaicin, reference compound] | increase nose temperatures | 87.9% | 25.26 |  |  |  |  |  |  |  |  |  |  |  |
| O=CC=Cc1ccccc1 [cinnamaldehyde] | increase nose temperatures |  | 34.072 | not | ~10 µM | not | significantly higher impact | increases chin temperature for a prolonged time | maximum efficacy | significantly higher impact | increased | equivalent effect | maintained at higher levels |  |
| [Zn] [zinc] |  |  |  |  |  |  |  |  |  |  |  |  |  | < 1 µM |
